pIC50: −log10 of the molar value.
Target: T1, human synovial collagenase (Homo sapiens, UniProt P03956)
T1 construct: endogenous in cells; host or cells: human synovial fibroblast culture; procollagenase partially purified from the culture medium
T1 sequence (P03956 100-469): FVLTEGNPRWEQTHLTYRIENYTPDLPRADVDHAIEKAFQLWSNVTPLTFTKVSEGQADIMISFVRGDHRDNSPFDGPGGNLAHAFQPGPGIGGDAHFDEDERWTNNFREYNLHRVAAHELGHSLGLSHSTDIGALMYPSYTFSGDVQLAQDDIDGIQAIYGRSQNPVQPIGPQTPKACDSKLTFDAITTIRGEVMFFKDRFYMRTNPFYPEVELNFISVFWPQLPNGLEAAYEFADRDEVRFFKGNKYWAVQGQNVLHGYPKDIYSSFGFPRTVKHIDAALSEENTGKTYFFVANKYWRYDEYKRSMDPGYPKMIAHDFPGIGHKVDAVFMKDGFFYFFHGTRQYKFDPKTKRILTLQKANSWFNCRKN
Experiment: In vitro inhibition of collagenase from human synovial fibroblast culture (synthetic peptide substrate cleavage)
Assay type: biochemical
Conditions: trypsin-activated procollagenase; 0.5 mmol N-acetyl-L-prolyl-L-leucylglycyl-L-leucyl-L-leucylglycyl ester substrate; borate buffer pH 7.5, CaCl2; 37° C., 1 hour; read-out: Inhibitory activity against human synovial collagenase IC50
Protocol: Procollagenase was partially purified from the cell culture medium by negative adsorption on DEAE Sephadex A-50 at pH 8.1 and activated by treatment with tryspin. The inhibitory activity of the present hydroxylamine derivatives was determined using a synthetic substrate, N-acetyl-L-prolyl-L-leucylglycyl-L-leucyl-L-leucylglycyl […], for this collagenase. The enzyme was added to a solution of 0.5 mmol of substrate in 50 mmol of borate buffer (pH 7.5) containing 1 mmol of calcium chloride and a known concentration of peptide derivative. The resulting solution was incubated at 37° C. for 1 hour. Enzyme digestion of the substrate was terminated by the addition of an equal volume of 2% (weight/volume) sodium hydrogen carbonate solution in 50% aqueous methanol containing 0.1% (weight/volume) of picrylsulfonic acid. The solution obtained was incubated at 37° C. for an additional 1 hour in order to allow reaction between the L-leucyl-L-leucyl-glycyl ethyl ester generated by the cleavage of the substrate and the picrylsulfonic acid to give trinitrophenyl-L-leucyl-L-leucylglycyl ethyl ester. The reaction was terminated and stabilized by acidification with IN hydrochloric acid. The concentration of trinitrophenyl-L-leucyl-L-leucylglycyl ethyl ester was determined by spectrophotometry at 335 nm. The IC50 is that concentration of hydroxylamine derivative of formula I of the invention in the enzyme digestion which reduces substrate cleavage to 50% of that achieved by the enzyme alone.

Structure (SMILES) | pIC50
CCOC(=O)CNC(=O)[C@H](CC(C)C)NC(=O)[C@@H](CC(=O)NO)CC(C)C [A, [4-(N-Hydroxyamino) 2(R)-isobutylsuccinyl]-L-leucylglycine ethyl ester] | 7.60
CCOC(=O)CNC(=O)[C@H](CC(C)C)NC(=O)[C@H](CC(C)C)[C@H](CCCCN1C(=O)c2ccccc2C1=O)C(=O)NO [F, [4-(N-hydroxyamino) 3(S)-phthaloylaminobutyl-2(R)-isobutylsuccinyl]-L-leucylglycine ethyl ester] | 7.92
CC(C)C[C@H](CC(=O)NO)C(=O)NC1CCCCCCCCCCNC1=O (stereo partly drawn) [E, [4-(N-hydroxyamino) 2(R)-isobutylsuccinyl]-3(RS)-aminolaurolactam] | 7.42
CCOC(=O)[C@H](C)NC(=O)[C@H](CC(C)C)NC(=O)[C@@H](CC(=O)NO)CC(C)C [B, [4-(N-hydroxyamino) 2(R)-isobutylsuccinyl]-L-leucyl-L-alanine ethyl ester] | 8.07
CCOC(=O)CNC(=O)[C@H](CC(C)C)NC(=O)C(CC(C)C)CN(O)C=O (mixture of isomers) [C, [N-formyl-N-hydroxy 2(RS)-isobutyl-3-aminopropionyl]-L-leucylglycine ethyl ester] | 6.52
CCOC(=O)[C@H](C)NC(=O)[C@H](CCCCNC(=O)CN)NC(=O)[C@@H](CC(=O)NO)CC(C)C [D, N^α -[4-(N-hydroxyamino) 2(R)-isobutylsuccinyl]-N^ε -glycyl-L-lysyl-L-alanine ethyl ester] | 7.52
